Results published in ChEMBL document CHEMBL3769398 (J Med Chem, 2016).
One block for each compound: values may come before it.

Tests used:
Histone deacetylase 1 [1] = biological target: T1, Histone deacetylase 1 (Homo sapiens, UniProt Q13547); assay: Inhibition of recombinant human KDAC1 using FAM-labelled substrate A incubated for 60 mins by microfluidic chip-based assay
Histone deacetylase 3 [2] = biological target: T2, Histone deacetylase 3 (Homo sapiens, UniProt O15379); assay: Inhibition of recombinant human KDAC3 using FITC-p53 acetylated peptide substrate incubated for 60 mins by microfluidic chip-based assay
Histone deacetylase 8 [3] = biological target: T3, Histone deacetylase 8 (Homo sapiens, UniProt Q9BY41); assay: Inhibition of recombinant human KDAC8 using FAM-labelled substrate B incubated for 60 mins by microfluidic chip-based assay
T3 sequence (Q9BY41 whole entry): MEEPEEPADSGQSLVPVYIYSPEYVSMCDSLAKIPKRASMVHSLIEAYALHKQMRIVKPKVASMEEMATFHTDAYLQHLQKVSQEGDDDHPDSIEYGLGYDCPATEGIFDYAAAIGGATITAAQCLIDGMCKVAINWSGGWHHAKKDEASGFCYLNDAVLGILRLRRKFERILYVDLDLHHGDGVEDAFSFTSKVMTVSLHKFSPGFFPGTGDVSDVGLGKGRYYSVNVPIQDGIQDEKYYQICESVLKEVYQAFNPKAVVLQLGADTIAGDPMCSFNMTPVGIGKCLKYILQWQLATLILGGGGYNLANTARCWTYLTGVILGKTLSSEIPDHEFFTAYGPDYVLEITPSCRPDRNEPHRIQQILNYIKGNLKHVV

Histone deacetylase 8 [4] = biological target: T3, Histone deacetylase 8; assay: Inhibition of full length human recombinant KDAC8 using fluorophore-conjugated substrate measured as fluorigenic release of 7-amino-4-methylcoumarin by microtiter plate reader analysis
[5] = biological target: T4, Protein deacetylase HDAC6 (Homo sapiens, UniProt Q9UBN7); assay: Inhibition of human KDAC6 by fluorescence assay
T4 sequence (Q9UBN7 whole entry): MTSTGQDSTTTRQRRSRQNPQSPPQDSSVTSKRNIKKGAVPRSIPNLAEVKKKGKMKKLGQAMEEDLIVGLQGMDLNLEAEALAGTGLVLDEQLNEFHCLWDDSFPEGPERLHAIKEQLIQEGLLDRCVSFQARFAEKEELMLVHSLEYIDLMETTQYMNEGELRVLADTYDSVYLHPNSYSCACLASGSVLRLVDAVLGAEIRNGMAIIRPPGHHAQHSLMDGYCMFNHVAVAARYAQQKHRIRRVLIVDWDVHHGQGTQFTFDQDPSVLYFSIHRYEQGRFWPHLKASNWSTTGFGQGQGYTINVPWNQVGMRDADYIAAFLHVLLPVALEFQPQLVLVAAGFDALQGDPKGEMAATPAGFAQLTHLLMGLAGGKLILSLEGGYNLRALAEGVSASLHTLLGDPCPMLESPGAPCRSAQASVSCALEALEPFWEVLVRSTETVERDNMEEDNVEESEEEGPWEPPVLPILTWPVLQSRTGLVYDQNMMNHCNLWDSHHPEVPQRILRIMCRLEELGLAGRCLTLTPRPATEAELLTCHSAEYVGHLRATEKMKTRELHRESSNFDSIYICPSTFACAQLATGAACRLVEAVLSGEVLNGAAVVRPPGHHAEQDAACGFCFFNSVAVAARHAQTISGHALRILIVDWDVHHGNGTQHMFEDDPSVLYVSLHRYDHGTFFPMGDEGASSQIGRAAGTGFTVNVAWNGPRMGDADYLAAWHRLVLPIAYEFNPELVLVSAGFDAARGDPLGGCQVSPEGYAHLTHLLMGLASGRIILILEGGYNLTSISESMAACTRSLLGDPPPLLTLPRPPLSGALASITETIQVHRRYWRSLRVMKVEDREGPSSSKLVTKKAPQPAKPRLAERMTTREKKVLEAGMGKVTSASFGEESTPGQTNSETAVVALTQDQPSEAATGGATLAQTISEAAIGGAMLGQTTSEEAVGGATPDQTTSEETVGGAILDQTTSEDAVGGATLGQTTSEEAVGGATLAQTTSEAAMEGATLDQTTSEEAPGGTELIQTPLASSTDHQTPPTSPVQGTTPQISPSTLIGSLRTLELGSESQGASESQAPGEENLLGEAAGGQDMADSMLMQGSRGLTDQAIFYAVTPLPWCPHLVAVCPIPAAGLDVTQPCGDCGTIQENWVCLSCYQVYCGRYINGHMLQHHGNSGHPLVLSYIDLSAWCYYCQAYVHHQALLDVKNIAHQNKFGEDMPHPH

Histone deacetylase 8 [6] = biological target: T3, Histone deacetylase 8; assay: Inhibition of human KDAC8 by fluorescence assay
Histone deacetylase 1 [7] = biological target: T1, Histone deacetylase 1; assay: Inhibition of human KDAC1
[8] = biological target: T4, Protein deacetylase HDAC6; assay: Inhibition of human KDAC6
Histone deacetylase 8 [9] = biological target: T3, Histone deacetylase 8; assay: Inhibition of human KDAC8
Histone deacetylase 3 [10] = biological target: T2, Histone deacetylase 3; assay: Inhibition of human KDAC3

T2 sequence (O15379 whole entry): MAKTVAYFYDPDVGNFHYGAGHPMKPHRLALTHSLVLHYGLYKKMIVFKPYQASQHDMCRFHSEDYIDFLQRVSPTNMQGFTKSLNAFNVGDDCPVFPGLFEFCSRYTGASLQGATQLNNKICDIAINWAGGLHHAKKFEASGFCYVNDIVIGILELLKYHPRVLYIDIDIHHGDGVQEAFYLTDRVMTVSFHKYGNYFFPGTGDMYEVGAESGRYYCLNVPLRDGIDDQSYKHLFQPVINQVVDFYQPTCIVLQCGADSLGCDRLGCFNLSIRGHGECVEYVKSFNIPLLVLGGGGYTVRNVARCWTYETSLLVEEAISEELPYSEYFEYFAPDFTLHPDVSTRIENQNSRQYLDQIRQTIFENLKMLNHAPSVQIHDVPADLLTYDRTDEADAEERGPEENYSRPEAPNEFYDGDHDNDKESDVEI
T1 sequence (Q13547 whole entry): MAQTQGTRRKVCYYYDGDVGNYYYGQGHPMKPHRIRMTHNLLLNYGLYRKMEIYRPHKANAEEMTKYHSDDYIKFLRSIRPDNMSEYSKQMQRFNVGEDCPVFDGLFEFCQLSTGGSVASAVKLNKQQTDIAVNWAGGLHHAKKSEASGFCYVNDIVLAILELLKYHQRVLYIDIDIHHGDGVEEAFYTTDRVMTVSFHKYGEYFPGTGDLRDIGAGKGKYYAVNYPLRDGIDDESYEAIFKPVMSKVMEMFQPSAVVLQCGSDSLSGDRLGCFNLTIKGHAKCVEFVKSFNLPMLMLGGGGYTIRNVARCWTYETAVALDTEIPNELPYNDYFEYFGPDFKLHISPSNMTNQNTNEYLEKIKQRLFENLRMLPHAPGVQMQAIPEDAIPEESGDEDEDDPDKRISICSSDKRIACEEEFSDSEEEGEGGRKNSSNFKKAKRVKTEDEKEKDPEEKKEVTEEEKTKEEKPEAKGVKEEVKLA

Compound: CC(C)[C@@H]1NC(=O)[C@H]2CCCN2C(=O)[C@@H]2CCCN2C(=O)C[C@H](C(=O)NCCCC(=O)NO)NC1=O
IC50 (Histone deacetylase 1 [1]): > 30 µM | IC50 (Histone deacetylase 3 [2]): > 30 µM | IC50 (Histone deacetylase 8 [3]): > 30 µM

Compound: CCCCCCCC(=O)SCC/C=C/[C@@H]1CC(=O)NCc2nc(cs2)C2=N[C@@](C)(CS2)C(=O)N[C@@H](C(C)C)C(=O)O1 [LARGAZOLE]
IC50 (Histone deacetylase 8 [4]): > 30 µM

IC50 [5]: > 30 µM | IC50 (Histone deacetylase 8 [6]): > 30 µM
Compound: Nc1ccccc1NC(=O)c1ccc(-c2cn(CCc3ccsc3)nn2)cc1

IC50 (Histone deacetylase 1 [7]): 3.48 µM | IC50 [8]: 1.61 µM | IC50 (Histone deacetylase 8 [9]): > 30 µM | IC50 (Histone deacetylase 3 [10]): 0.47 µM
Compound: CC(=O)SCC/C=C/[C@@H]1CC(=O)NCc2ccc(cc2)C2=N[C@@](C)(CS2)C(=O)N[C@@H](C(C)C)C(=O)O1

Compound: CC(C)[C@@H]1NC(=O)[C@@H]2CCCN2C(=O)[C@H]2CCCN2C(=O)C[C@@H](C(=O)NCCCC(=O)NO)NC1=O
IC50 (Histone deacetylase 1 [1]): 25.1 µM | IC50 (Histone deacetylase 3 [2]): 13.7 µM | IC50 (Histone deacetylase 8 [3]): > 30 µM
